Measurements published in patent publication US20190169140A1, “IDO1 INHIBITOR AND PREPARATION METHOD AND APPLICATION THEREOF” (SHANDONG LUYE PHARMACEUTICAL CO., LTD., priority 2016, published 2019).
Values belong to the molecule of their own block, whether it stands above or below them.

Tests used:
[1] = biological target: T1, IDO1 enzyme in Hela cells (Homo sapiens, UniProt P14902); test: Test of hIDO1 for cytological activity (Hela cell kynurenine by LCMS, interferon-γ induced); assay type: cell-based; conditions: interferon-γ 100 ng/ml, 20 hours
T1 construct: endogenous in cells; host or cells: Hela cells, induced with recombinant human interferon-γ
Method: 2. Test of hIDO1 for Cytological Activity
Changes in Hela cell kynurenine were detected by an LCMS method. With an IC50 value of a compound as an index, an inhibitory effect of the compound on IDO1 enzyme was evaluated.
The culture medium, trypsin, and DPBS were preheated in water bath at 37° C. The culture medium was removed by sucking from cell culture, followed by cleaning the cell culture with 10 mL of DPBS; the preheated trypsin was added to the culture flask, which was revolved to make the culture flask covered by trypsin uniformly, and placed into an incubator at 37° C. with 5% CO2 for digestion for 1-2 minutes; 10-15 mL of the culture medium was used to suspend cells each T150, followed by centrifugation at 800 rpm for 5 minutes. 10 mL of the culture medium was used to resuspend the cells. 1 mL of the cell resuspension was pipetted, and counted with Vi-cell; the Hela cells were diluted to 5×10^5/mL with the culture medium, 80 μL of the diluted Hela cells were added to the 96-well cell plate, and incubated in the an incubator at 37° C. with 5% CO2 for 5-6 hours.
The compound was diluted with DMSO to 1 mM, with 9 gradients, each 3-fold dilution, in duplicate. 5 μL of the already diluted compound DMSO solution was added to the compound plate containing 95 μL of the culture medium. After even mixing, 10 μL of the mixture was transferred to the cell plate.
10 μL of recombinant human interferon-γ was added to result in a final concentration of 100 ng/ml, to induce expression of IDO1. Incubation was carried out in the 5% CO2 incubator at 37° C. for 20 hours. 4 μL of 5% (w/v) trichloroacetic acid was added, followed by even mixing and incubation at 50° C. for 30 minutes. After centrifugation at 2400 rpm for 10 minutes, 40 μL of a supernatant was added to a 96-well V-bottom plate, followed by addition of a precipitant. Centrifugation was carried out at 4000 rpm for 10 minutes after even mixing. 100 μL of the supernatant was transferred to a new 96-well V-bottom plate. A content of kynurenine was detected through LCMS.
A reference well to which the interferon-γ was added but no compound was added was set to have an inhibition rate of 0%, and a reference well to which no Hela cell was added was set to have an inhibition rate of 100%. Data was analyzed with XLFit 5 to calculate an IC50 value of the compound.

[2] = Test for permeability across Caco2; assay type: in vitro ADME; conditions: human, Caco-2
Method: 2. Test for Permeability Across Caco2
A sample for test was dissolved in dimethyl sulfoxide (DMSO) or other suitable solvents, to be prepared into 10 mM stock solution. A suitable internal standard
Fenoterol, propranolol, and digoxin acted as low-permeability control, high-permeability control, and P-gp (P-glycoprotein) substrate, respectively, in the present research. The stock solutions of these compounds were prepared with DMSO, stocked at 2-8° C., and valid for use within 3 months.
In the present project, a Hank's balanced salt buffer containing 10 mM HEPES was used as a transport buffer.
Caco-2 cells were cultivated using MEM culture media (Minimum Essential Media), with a culture condition of 37±1° C., 5% CO2, and saturated relative humidity. Afterwards, the cells were inoculated into a BD Transwell-96-well plate, with an inoculation density of 1×10^5 cells/cm^2, then the cells were placed in a carbon dioxide incubator to be incubated for 21-28 days, and then used for a transport experiment.
The sample for test and digoxin with donation concentration of 2 μM were administered in two directions (direction A-B and direction B-A), each in duplicate. Fenoterol and propranolol each with test concentration of 2 μM were administered in a single direction (direction A-B), each in duplicate.
A solution to be used was placed in a 37±1° C. water bath kettle to be pre-incubated for 30 minutes. The donor solution and the receiver solution were respectively added to corresponding sides of well of cell plate (to each apical sides and each basolateral sides, 75 μL and 250 μL of samples were added respectively), and experiment of bidirectional transport was started. After addition of the samples, the cell plate was placed in a 37±1° C., 5% CO2 incubator with saturated relative humidity to be incubated for 120 minutes.
The samples were all centrifuged at 3220 g for 10 minutes after being shaken in a vortex manner. A suitable volume of a supernatant was transferred to a sample analyzing plate. If analysis was not carried out immediately after the plate was sealed, the plate was stored at 2-8° C. The analysis was carried out through a method of LC/MS/MS.
The sample for test, the fenoterol control, propranolol control, and digoxin were analyzed in a semiquantitative manner, and specific values of analytes to a peak area of the internal standard were taken as concentration of the controls.

[3] = Death and body weight of tumor-bearing mice (CT26 model); assay type: in vivo
Method: Therefore, the dose of the two compounds, compound 360 and compound 117, in the present experiment was set as 100 mg/kg. In order to observe dose-efficacy relevance of 231, a dose of the compound 231 was set as 25, 50, 100, 200 mg/kg in the present experiment. All drugs were administered by gavage, twice a day.
The day of tumor inoculation was defined as Day 0, and the inoculated animals were grouped randomly on the day of inoculation. One day after the inoculation (Day 1), the administration was started. The experiment had 7 groups in total, with 12 animals in each group. See details in Table 12 for information on animal grouping and administration.
(3) As for animal weight, body weight of the mouse was weighed each time when the tumor diameter was measured or before the administration, and death of the animals was observed once a day.
7.1 Death and Body Weight of Tumor-Bearing Mice

T1 sequence (P14902 whole entry): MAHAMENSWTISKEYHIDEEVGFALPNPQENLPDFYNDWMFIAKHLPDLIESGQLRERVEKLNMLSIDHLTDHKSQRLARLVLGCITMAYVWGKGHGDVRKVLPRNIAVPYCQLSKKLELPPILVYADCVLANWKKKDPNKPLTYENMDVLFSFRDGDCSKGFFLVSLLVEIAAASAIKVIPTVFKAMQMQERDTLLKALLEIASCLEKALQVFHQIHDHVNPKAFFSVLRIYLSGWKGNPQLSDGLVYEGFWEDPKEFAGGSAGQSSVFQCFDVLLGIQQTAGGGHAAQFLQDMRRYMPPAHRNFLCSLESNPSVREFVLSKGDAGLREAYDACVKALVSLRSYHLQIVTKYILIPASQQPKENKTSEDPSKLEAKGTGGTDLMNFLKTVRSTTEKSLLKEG

IC50 [1]: 14 nM
SMILES: NS(=O)(=O)NCCOc1nonc1/C(=N/O)Nc1ccc(F)c(Br)c1 [Compound 0015]

SMILES: NS(=O)(=O)NCCSc1nonc1/C(=N/O)Nc1ccc(F)c(Br)c1 [Compound 0117]
IC50 [1]: 5.85 nM
Papp A→B at 120 min, 2 µM [2]: 2.97 ×10⁻⁶ cm/s
Papp B→A at 120 min, 2 µM [2]: 12.2 ×10⁻⁶ cm/s
Rate of Weight Change of D17 vs D1 ([3]; 100 mg/kg gavage BID): 8.5%
body weight compared with the control group when the experiment was ended ([3]; 100 mg/kg gavage BID): remarkably decreased weight
Body weight of tumor-bearing mice ([3]; 100 mg/kg gavage BID, D12): 23.1 g
Body weight of tumor-bearing mice ([3]; 100 mg/kg gavage BID, D14): 23.3 g
Body weight of tumor-bearing mice ([3]; 100 mg/kg gavage BID, D17): 24.2 g
Body weight of tumor-bearing mice ([3]; 100 mg/kg gavage BID, Day1): 22.3 g
Body weight of tumor-bearing mice ([3]; 100 mg/kg gavage BID, Day3): 22.7 g
Body weight of tumor-bearing mice ([3]; 100 mg/kg gavage BID, Day6): 22.7 g
Body weight of tumor-bearing mice ([3]; 100 mg/kg gavage BID, Day8): 21.8 g
Body weight of tumor-bearing mice ([3]; 100 mg/kg gavage BID, Day10): 22.9 g

IC50 [1]: 3.1 nM
SMILES: CC(=O)NCCSc1nonc1/C(=N/O)Nc1ccc(F)c(Br)c1 [Compound 0227]

SMILES: NC(=O)NCCSc1nonc1/C(=N/O)Nc1ccc(F)c(Br)c1 [Compound 0231]
IC50 [1]: 4.35 nM
Papp A→B at 120 min, 2 µM [2]: 2.58 ×10⁻⁶ cm/s
Papp B→A at 120 min, 2 µM [2]: 20.1 ×10⁻⁶ cm/s
Rate of Weight Change of D17 vs D1 ([3]; 25 mg/kg gavage BID): 12.0%
body weight compared with the control group when the experiment was ended ([3]; 25 mg/kg gavage BID): no significant difference
Body weight of tumor-bearing mice ([3]; 25 mg/kg gavage BID, D12): 23.9 g
Body weight of tumor-bearing mice ([3]; 25 mg/kg gavage BID, D14): 24.4 g
Body weight of tumor-bearing mice ([3]; 25 mg/kg gavage BID, D17): 25.2 g
Body weight of tumor-bearing mice ([3]; 25 mg/kg gavage BID, Day1): 22.5 g
Body weight of tumor-bearing mice ([3]; 25 mg/kg gavage BID, Day3): 21.5 g
Body weight of tumor-bearing mice ([3]; 25 mg/kg gavage BID, Day6): 23.3 g
Body weight of tumor-bearing mice ([3]; 25 mg/kg gavage BID, Day8): 23.0 g
Body weight of tumor-bearing mice ([3]; 25 mg/kg gavage BID, Day10): 23.1 g
Rate of Weight Change of D17 vs D1 ([3]; 50 mg/kg gavage BID): 7.5%
body weight compared with the control group when the experiment was ended ([3]; 50 mg/kg gavage BID): remarkably decreased weight
Body weight of tumor-bearing mice ([3]; 50 mg/kg gavage BID, D12): 23.4 g
Body weight of tumor-bearing mice ([3]; 50 mg/kg gavage BID, D14): 24.2 g
Body weight of tumor-bearing mice ([3]; 50 mg/kg gavage BID, D17): 24.5 g
Body weight of tumor-bearing mice ([3]; 50 mg/kg gavage BID, Day1): 22.8 g
Body weight of tumor-bearing mice ([3]; 50 mg/kg gavage BID, Day3): 23.0 g
Body weight of tumor-bearing mice ([3]; 50 mg/kg gavage BID, Day6): 22.7 g
Body weight of tumor-bearing mice ([3]; 50 mg/kg gavage BID, Day8): 22.6 g
Body weight of tumor-bearing mice ([3]; 50 mg/kg gavage BID, Day10): 23.2 g
Rate of Weight Change of D17 vs D1 ([3]; 100 mg/kg gavage BID): 8.4%
body weight compared with the control group when the experiment was ended ([3]; 100 mg/kg gavage BID): remarkably decreased weight
Body weight of tumor-bearing mice ([3]; 100 mg/kg gavage BID, D12): 23.5 g
Body weight of tumor-bearing mice ([3]; 100 mg/kg gavage BID, D14): 24.3 g
Body weight of tumor-bearing mice ([3]; 100 mg/kg gavage BID, D17): 24.4 g
Body weight of tumor-bearing mice ([3]; 100 mg/kg gavage BID, Day1): 22.5 g
Body weight of tumor-bearing mice ([3]; 100 mg/kg gavage BID, Day3): 22.7 g
Body weight of tumor-bearing mice ([3]; 100 mg/kg gavage BID, Day6): 22.8 g
Body weight of tumor-bearing mice ([3]; 100 mg/kg gavage BID, Day8): 23.2 g
Body weight of tumor-bearing mice ([3]; 100 mg/kg gavage BID, Day10): 23.4 g
Rate of Weight Change of D17 vs D1 ([3]; 200 mg/kg gavage BID): 4.4%
body weight compared with the control group when the experiment was ended ([3]; 200 mg/kg gavage BID): remarkably decreased weight
Body weight of tumor-bearing mice ([3]; 200 mg/kg gavage BID, D12): 22.3 g
Body weight of tumor-bearing mice ([3]; 200 mg/kg gavage BID, D14): 22.9 g
Body weight of tumor-bearing mice ([3]; 200 mg/kg gavage BID, D17): 23.7 g
Body weight of tumor-bearing mice ([3]; 200 mg/kg gavage BID, Day1): 22.7 g
Body weight of tumor-bearing mice ([3]; 200 mg/kg gavage BID, Day3): 23.2 g
Body weight of tumor-bearing mice ([3]; 200 mg/kg gavage BID, Day6): 20.8 g
Body weight of tumor-bearing mice ([3]; 200 mg/kg gavage BID, Day8): 21.9 g
Body weight of tumor-bearing mice ([3]; 200 mg/kg gavage BID, Day10): 22.0 g

SMILES: NS(=O)(=O)NCCNc1nonc1C(=NO)Nc1ccc(F)c(Br)c1 [Compound 360, INCB024360, reference compound]
Papp A→B at 120 min, 2 µM [2]: 0.39 ×10⁻⁶ cm/s
Papp B→A at 120 min, 2 µM [2]: 19.6 ×10⁻⁶ cm/s
Rate of Weight Change of D17 vs D1 ([3]; 100 mg/kg gavage BID): 9.4%
body weight compared with the control group when the experiment was ended ([3]; 100 mg/kg gavage BID): no significant difference
Body weight of tumor-bearing mice ([3]; 100 mg/kg gavage BID, D12): 24.5 g
Body weight of tumor-bearing mice ([3]; 100 mg/kg gavage BID, D14): 25.0 g
Body weight of tumor-bearing mice ([3]; 100 mg/kg gavage BID, D17): 25.3 g
Body weight of tumor-bearing mice ([3]; 100 mg/kg gavage BID, Day1): 23.2 g
Body weight of tumor-bearing mice ([3]; 100 mg/kg gavage BID, Day3): 23.5 g
Body weight of tumor-bearing mice ([3]; 100 mg/kg gavage BID, Day6): 23.7 g
Body weight of tumor-bearing mice ([3]; 100 mg/kg gavage BID, Day8): 23.5 g
Body weight of tumor-bearing mice ([3]; 100 mg/kg gavage BID, Day10): 23.9 g
